The text below walks through data of PubChem BioAssay AID2305 (GlaxoSmithKline (GSK), 2010).

Values joined by “and” are separate entries in the source; they are usually repeats but may differ in a detail not shown here. Equal values may be shown once.

A word on the IC50: it is the point on the concentration scale where inhibition reaches its midpoint.

In the assay the test system is P. falciparum 3D7 growth, pLDH absorbance. Description: P. falciparum 3D7 growth inhibition, dose response, strain 3D7 (AID 2305).

The molecule `N#CC1(c2ccccc2)CCN(c2nc(NCCCN3CCCC3=O)nc(N3CCCC4CCCCC43)n2)CC1` (stereo unspecified) showed an IC50 of 860 nM.
`Cc1[nH]c(C)c(-c2cccc(Oc3ccc(Cl)cc3)c2)c(=O)c1Br` returned an IC50 of 70 nM.
The result for `CCN(CC)CCOc1ccc(N(Cc2ccc(C(C)(C)C)cc2)C(=O)c2ccc(Cc3ccccc3)cc2)cc1OC` reads 770 nM.
`CN1CCN(CCCN(Cc2cccc(-c3ccc(CNCCc4ccccc4)cc3)c2)C(=O)c2cccs2)CC1` registered an IC50 of 720 nM.
The same measure for `COc1ccc2nccc([C@@H](O)CN3CCC(NC(=O)C(c4ccccc4C)N4CCC(Cc5ccccc5)CC4)CC3)c2c1` (stereo partly specified): 260 nM; for `CN1CCN(c2ccc(CNc3ccc4ncc(-c5ccc(OC(F)(F)F)cc5)n4n3)cc2)CC1`: 830 nM.
The same measure for `CN(C)CCCOc1cccc(NC(=O)Nc2ccc(-c3ccccc3)cc2)c1`: 870 nM.
Regarding `Cc1cc(NN=Cc2ccccn2)c2cc(C(F)(F)F)ccc2n1`, the IC50 worked out at 620 nM.
The result for `NC(=O)C1Cc2ccccc2CN1CC(=O)Nc1ccccc1Sc1ccccc1` (stereo unspecified) reads 70 nM.
On to `CC(O)C1CCCCN1C(=O)c1cccc(-c2ccc(-c3nc4ccc(C(F)(F)F)cc4[nH]3)cc2)c1` (stereo unspecified), for which the IC50 stood at 690 nM.
As to `CCc1ccc(CNCC(CCNc2cc(=O)c3ccccc3[nH]2)NCc2cc(Br)cc(Br)c2)o1` (stereo unspecified), the half-maximal inhibitory concentration (IC50) came to 640 nM.
As to `CCc1ccc(NC(=O)N(CCCN2CCN(C)CC2)Cc2csc(-c3ccc(CNCc4ccccc4)cc3)n2)cc1`, the IC50 was found to be 1010 nM. This IC50 is about 1.6-fold higher than that of the molecule before.
The same measure for `COc1ccc(F)cc1-c1ccccc1CNC(=O)CN(C)S(=O)(=O)c1cc(C)cc(Cl)c1C`: 660 nM; for `CC(O)C1CCCCN1C(=O)c1cccc(-c2cccc(-c3nc4ccc(F)cc4[nH]3)c2)c1` (stereo unspecified): 540 nM; for `c1ccc(Oc2ccc(Nc3ccnc4cc(-c5ccc(CN6CCOCC6)o5)ccc34)cc2)nc1`: 910 nM.
The result for `CC(C)(C)OC(=O)N[C@@H](CS(=O)(=O)CCN=C(N)COCc1ccccc1)C(=O)OC(C)(C)C` reads 820 nM; that for `NCCCNc1ccnc2cc(Cl)ccc12`, 300 nM; that for `CC(=O)Nc1ccc(S(=O)(=O)Nc2ccc(Nc3nc(C)cc(N(C)C)n3)cc2)cc1`, 1160 nM.
With `Cc1ccc(NC(=O)c2ccc(CN3CCCN(Cc4cccc(O)c4)CC3)cc2)cc1F`, the IC50 was determined as 590 nM.
The result for `CC(C)(C)c1ccc(NC(=O)c2ccc(CN3CCCN(Cc4cccc(Cl)c4)CC3)cc2)cc1` reads 970 nM; that for `Cc1sc(C)c(C(F)(F)F)c1CNCCCNc1cc(=O)c2ccccc2[nH]1`, 1100 nM.
The same measure for `CCCCn1c(=N)c(C(=O)NCc2cccnc2)cc2c(=O)n3cccc(C)c3nc21`: 740 nM; for `CCCCCc1cc(O)c2c(c1)OC(C)(C)CC2C1=CCN(Cc2cnc3ccccc3c2)CC1` (stereo unspecified): 280 nM.
The same measure for `COc1nc2c(CCN3CCC(NCc4ccc5c(c4)NC(=O)CO5)CC3)c(Cl)cnc2cc1F`: 770 nM.
`CN(C)CCOc1ccc(/C(=C(/CCCn2ccnc2)c2ccccc2)c2ccc(O)cc2)cc1` gave an IC50 of 770 nM.
The result for `CC[C@H](N=C(Nc1ccc(C#N)cc1O)Nc1cccc(Cl)c1Cl)c1ccccc1` reads 820 nM; that for `CC(C)CN1CCCN(Cc2cccc(NC(=O)c3ccc(Cl)c(Cl)c3)c2)CC1`, 890 nM.
`O=C(NCc1ccc(Cl)c(Cl)c1)c1cccc(C2CCCN(Cc3ccc4nc[nH]c4c3)C2)c1` (stereo unspecified) registered an IC50 of 930 nM. This IC50 and that of the molecule before are within 1.5-fold of each other.
The same measure for `Cc1sc(N2CCN(C)CC2)nc1C(=O)Nc1ccc(F)cc1C(F)(F)F`: 1070 nM.
As to `COc1ccc(C2CC(=O)C3=C(C2)NC(C)=C(C(=O)OC2CCCC2)C3c2cccc(O)c2)cc1OC` (stereo unspecified), the IC50 is 220 nM.
The same measure for `NC(=O)CCC(NC(=O)CNC(=O)Nc1cccc(C(F)(F)F)c1)C(=O)O` (stereo unspecified): 800 nM; for `Cc1cc(CN2C(=O)C(c3ccccc3)(c3ccccc3)N=C2N)c(C(F)(F)F)o1`: 960 nM.
The same measure for `O=C(Nc1ccc(-c2ccc(-c3nc4ccccc4[nH]3)s2)cc1)Nc1ccc(F)c(F)c1F`: 190 nM.
The same measure for `CCCCN(CCCC)CCC(O)C(=Cc1ccc(Cl)cc1Cl)c1ccc(C(F)(F)F)cc1N` (stereo unspecified): 190 nM; for `O=c1cc(NCCCNCc2[nH]c3cc(Cl)cc(Cl)c3c2Cn2cccn2)[nH]c2ccccc12`: 970 nM; for `COC(=O)c1cccc(CNCc2cccc(-c3ccc(-c4nc5ccccc5[nH]4)s3)c2)c1`: 490 nM.
`CC(C)NCc1cccc(-c2cccc(-c3nc4ccc(F)cc4[nH]3)c2)c1` yielded an IC50 of 280 nM.
In the case of `COc1ccc(CNCCc2cccs2)cc1-c1ccc(S(=O)(=O)NCCN2CCCC2)s1`, the IC50 amounted to 880 nM.
Regarding `O=C(NC1CC1)c1ccc(N2CCC(COc3cccc(F)c3)CC2)nc1`, the IC50 amounted to 1240 nM.
The molecule `CCNc1cc(C(=O)N[C@@H](Cc2ccc(F)c(F)c2)[C@H](O)CNCc2cccc(OC)c2)cc(N2CCCCS2(=O)=O)c1` came in with an IC50 of 750 nM.
With `COc1cc(C(F)(F)F)cc2[nH]c(CNCCCNc3nc4ccccc4[nH]3)cc12`, the half-inhibitory concentration (IC50) worked out at 280 nM.
`COc1ccc2nc(/C=C/c3cccc4ccc(C)nc34)[nH]c2c1` returned an IC50 of 790 nM.
`Cc1nc2nc(N)nc(N)c2c(C)c1Cc1ccc([N+](=O)[O-])cc1` gave an IC50 of 440 nM.
The same measure for `CCOC(=O)c1cnc2c(OC)cc(OC)c(Cl)c2c1Nc1ccccc1`: 870 nM.
As to `CCc1cn(CCS(C)(=O)=O)c2ccc(C(=O)N[C@@H](Cc3ccccc3)[C@H](O)CNC(C)(C)CCCC(C)C)cc12`, the concentration for half-maximal inhibition (IC50) amounted to 880 nM.
The same measure for `COc1cccc2c(O)c(CNC3CCCCC3)ccc12`: 630 nM; for `COc1ccccc1CN1CCC(NC(=O)c2ccc(-c3ccc(N(C)C)cc3)s2)CC1`: 960 nM.
The same measure for `CCCCOc1ccc(-c2nc3ccccc3[nH]2)cc1`: 870 nM.
The same measure for `O=C(Nc1cccc(F)c1)N1CCC(CN2CCOC(c3ccccc3)(c3ccccc3)C2)CC1`: 200 nM; for `O=C(NCc1cccc(C(F)(F)F)c1)c1ccc(-c2nc3cc(F)c(F)cc3[nH]2)cc1`: 780 nM.
The molecule `Cc1cc(NN=Cc2ccccc2Cl)c2cccc(C)c2n1` showed an IC50 of 710 nM.
The same measure for `CC1(C)N=C(N)N=C(N)N1c1ccc(Br)cc1`: 10 nM; for `Cc1cccc2[nH]c(-c3ccc(-c4ccc(C(=O)NCCc5cn(C)cn5)cc4)s3)nc12`: 960 nM; for `c1cncc(CN2CCCN(c3ccc4c(c3)CCN(Cc3ccc(-c5ncc[nH]5)cc3)CC4)CC2)c1`: 750 nM.
The result for `Cc1noc(C)c1-c1cccc(CNCc2cccc(-c3cccc(-c4nc5ccc(F)cc5[nH]4)c3)c2)c1` reads 180 nM; that for `CCCCC(CCCC)CN1C(=O)C(c2ccccc2)(c2ccccc2)N=C1N`, 180 nM; that for `CC(C)(C)c1cc(/C=C/C(=O)NC2CCC(CN3CCC(c4c[nH]c5ccccc45)CC3)CC2)cc(C(C)(C)C)c1O` (stereo unspecified), 720 nM and 700 nM.
The result for `Fc1ccccc1COc1ccc(Nc2ncnc3ccc(I)cc23)cc1Cl` reads 930 nM.
Molecule `CC(C)[C@H](NC(=O)c1ccc(O)c(-c2ccc(Cl)c(Cl)c2)c1)C(=O)NCCN1CCCC1` registered an IC50 of 930 nM.
The same measure for `CC(C)CCCC(C)(C)NC[C@@H](O)[C@H](Cc1ccccc1)NC(=O)c1cc(NC(C)C)cc(N2CCCCS2(=O)=O)c1`: 210 nM; for `CC(C)C[C@H](NC(=O)c1cc(-c2ccc(C(C)(C)C)cc2)no1)C(=O)O` (tested in a mixture with another compound): 190 nM.
